Experimental findings from patent publication US12371428B2 (Exelixis, Inc., priority 2019, dated 2025) are described below.

Structures can show the parent of a compound that is named as a salt.

Assay [1] has as its target Human KDR (residues 790-1356) (Homo sapiens (Human), UniProt P35968). Put plainly: Human KDR kinase assay, HTRF KinEase (Example B-2). Format: biochemical. The conditions noted are these: protocol of Example B-2 (other compounds). The method in brief:
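Human KDR residues 790-1356 (0.1 ng/well) in buffer with 5 mM MgCl2, 1 mM MnCl2, 1 mM DTT, biotinylated peptide substrate, ATP at Km (4.0 μM), 3% DMSO, 10 compound concentrations; 40 min, room temperature. EDTA stop, streptavidin-XL665/Eu-TK antibody HTRF read 665/620 nm; 4-parameter IC50.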
(In general: TR-FRET usually uses a lanthanide donor and a delayed reading to cut background.)

Assay [2] deals with KDR (phospho-KDR, VEGF165-stimulated HUVEC cells) (Homo sapiens (Human), UniProt P35968). Put plainly: KDR autophosphorylation ELISA in HUVEC cells (Example G). Format: cell-based. To be noted: cellular activity; KDR autophosphorylation ELISA in HUVEC cells. Put shortly:
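HUVECs were serum-starved 24 h, given compound as an 8-point dilution series (0.3% DMSO final) for 1 h, then stimulated with 100 ng/mL VEGF165 for 5 min. Lysate phospho-KDR was quantified by sandwich ELISA against a phospho-KDR standard, and IC50s came from a 4-parameter logistic fit.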

Chain of Human KDR (residues 790-1356) (P35968 790-1356): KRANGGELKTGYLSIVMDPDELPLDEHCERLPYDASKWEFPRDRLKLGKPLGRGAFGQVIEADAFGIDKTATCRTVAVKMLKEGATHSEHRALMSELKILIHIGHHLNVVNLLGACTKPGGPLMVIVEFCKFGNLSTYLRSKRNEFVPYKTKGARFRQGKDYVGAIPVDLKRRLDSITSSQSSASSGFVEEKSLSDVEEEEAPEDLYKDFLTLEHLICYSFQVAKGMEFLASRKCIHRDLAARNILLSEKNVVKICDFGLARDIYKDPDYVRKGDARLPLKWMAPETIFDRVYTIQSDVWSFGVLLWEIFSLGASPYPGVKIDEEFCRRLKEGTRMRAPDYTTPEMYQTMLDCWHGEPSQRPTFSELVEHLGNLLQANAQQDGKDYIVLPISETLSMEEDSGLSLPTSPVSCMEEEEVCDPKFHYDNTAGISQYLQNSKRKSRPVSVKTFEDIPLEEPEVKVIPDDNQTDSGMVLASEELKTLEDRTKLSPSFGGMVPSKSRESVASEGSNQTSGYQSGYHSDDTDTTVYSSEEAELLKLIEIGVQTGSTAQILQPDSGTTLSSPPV
Chain of KDR (phospho-KDR, VEGF165-stimulated HUVEC cells) (P35968 20-1356): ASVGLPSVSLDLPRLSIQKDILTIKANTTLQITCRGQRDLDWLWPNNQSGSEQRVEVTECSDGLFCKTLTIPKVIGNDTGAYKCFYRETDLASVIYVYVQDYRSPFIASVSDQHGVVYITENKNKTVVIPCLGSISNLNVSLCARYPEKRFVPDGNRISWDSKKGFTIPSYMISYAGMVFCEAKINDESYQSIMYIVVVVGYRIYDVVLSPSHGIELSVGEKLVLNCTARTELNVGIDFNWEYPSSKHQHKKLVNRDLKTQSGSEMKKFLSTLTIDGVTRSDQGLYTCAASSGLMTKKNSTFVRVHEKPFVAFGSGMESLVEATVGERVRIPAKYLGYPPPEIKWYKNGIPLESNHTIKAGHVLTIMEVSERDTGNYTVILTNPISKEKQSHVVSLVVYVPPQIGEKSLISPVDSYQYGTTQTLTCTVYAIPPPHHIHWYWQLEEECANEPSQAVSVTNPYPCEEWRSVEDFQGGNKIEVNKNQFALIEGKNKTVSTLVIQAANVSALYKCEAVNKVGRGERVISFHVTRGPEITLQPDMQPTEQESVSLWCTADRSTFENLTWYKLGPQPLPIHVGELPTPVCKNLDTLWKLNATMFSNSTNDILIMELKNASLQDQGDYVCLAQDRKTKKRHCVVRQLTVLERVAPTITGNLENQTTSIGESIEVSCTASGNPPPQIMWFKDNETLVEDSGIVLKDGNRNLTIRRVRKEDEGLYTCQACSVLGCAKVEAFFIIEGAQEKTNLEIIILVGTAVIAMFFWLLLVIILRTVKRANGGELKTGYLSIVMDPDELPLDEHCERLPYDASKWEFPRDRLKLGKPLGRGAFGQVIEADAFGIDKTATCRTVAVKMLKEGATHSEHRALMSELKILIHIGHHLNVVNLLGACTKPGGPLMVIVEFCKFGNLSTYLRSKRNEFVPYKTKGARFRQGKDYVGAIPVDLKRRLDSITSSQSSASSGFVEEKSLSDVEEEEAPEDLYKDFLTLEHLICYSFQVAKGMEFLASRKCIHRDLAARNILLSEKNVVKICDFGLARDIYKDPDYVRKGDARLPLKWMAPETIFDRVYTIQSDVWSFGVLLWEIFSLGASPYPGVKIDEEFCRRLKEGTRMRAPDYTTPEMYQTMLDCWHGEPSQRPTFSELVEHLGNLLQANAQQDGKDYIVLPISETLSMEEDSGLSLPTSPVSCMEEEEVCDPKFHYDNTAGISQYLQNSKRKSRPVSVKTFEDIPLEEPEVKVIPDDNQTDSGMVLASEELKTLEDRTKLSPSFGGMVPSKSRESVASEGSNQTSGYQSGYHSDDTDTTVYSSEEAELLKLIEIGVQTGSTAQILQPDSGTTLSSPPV

Regarding `COc1cc2nccc(Oc3ccc(NC(=O)c4cnc(C)c(-c5ccc(F)cc5)c4O)cc3F)c2nc1OC` [Compound 28, N-[4-[(6,7-Dimethoxy-1,5-naphthyridin-4-yl)oxy]-3-fluorophenyl]-5-(4-fluorophenyl)-4-hydroxy-6-methylpyridine-3-carboxamide], the IC50 in assay [1] and in assay [2] was less than 100 nM each time.

For `COc1cc2nccc(Oc3ccc(NC(=O)c4cn(C(C)C)c(C)c(-c5ccccc5)c4=O)cc3F)c2nc1OC` [Compound 29, N-[4-[(6,7-Dimethoxy-1,5-naphthyridin-4-yl)oxy]-3-fluorophenyl]-6-methyl-4-oxo-5-phenyl-1-propan-2-ylpyridine-3-carboxamide hydrochloride], the IC50 – broadly, the concentration that inhibits the measured activity by half – is less than 100 nM in assay [1] and 100 to 300 nM in assay [2].

In the case of `COc1cc2nccc(Oc3ccc(NC(=O)c4cnc(C)c(-c5ccc(F)cc5)c4O)cc3)c2nc1OC` [Compound 119, N-[4-[(6,7-Dimethoxy-1,5-naphthyridin-4-yl)oxy]phenyl]-5-(4-fluorophenyl)-4-hydroxy-6-methylpyridine-3-carboxamide], the IC50 in assay [1] and in assay [2] was less than 100 nM throughout.

On to `COc1cnc2c(Oc3ccc(NC(=O)c4cncc(-c5ccc(F)cc5)c4O)cc3F)ccnc2c1` [Compound 120, N-[3-Fluoro-4-[(7-methoxy-1,5-naphthyridin-4-yl)oxy]phenyl]-5-(4-fluorophenyl)-4-hydroxypyridine-3-carboxamide], for which the half-inhibitory concentration (IC50) in assay [1] and in assay [2] was less than 100 nM each time.

Regarding `COc1cnc2c(Oc3ccc(NC(=O)c4cn(C(C)C)c(C)c(-c5ccc(F)cc5)c4=O)cc3F)ccnc2c1` [Compound 121, N-[3-Fluoro-4-[(7-methoxy-1,5-naphthyridin-4-yl)oxy]phenyl]-5-(4-fluorophenyl)-6-methyl-4-oxo-1-propan-2-ylpyridine-3-carboxamide], the IC50 in assay [1] and in assay [2] was more than 300 nM in each case.

Regarding `COc1cc2nccc(Oc3ccc(NC(=O)c4cn(C(C)C)cc(-c5ccc(F)cc5)c4=O)cc3)c2nc1OC` [Compound 122, N-[4-[(6,7-Dimethoxy-1,5-naphthyridin-4-yl)oxy]phenyl]-5-(4-fluorophenyl)-4-oxo-1-propan-2-ylpyridine-3-carboxamide], the IC50 was less than 100 nM in assay [1] and 100 to 300 nM in assay [2].

For `COc1cnc2c(Oc3ccc(NC(=O)c4cn(C(C)C)cc(-c5ccc(F)cc5)c4=O)cc3F)ccnc2c1` [Compound 123, N-[3-Fluoro-4-[(7-methoxy-1,5-naphthyridin-4-yl)oxy]phenyl]-5-(4-fluorophenyl)-4-oxo-1-propan-2-ylpyridine-3-carboxamide], the IC50 in assay [1] and in assay [2] was more than 300 nM throughout.

For `COc1cc2nccc(Oc3ccc(NC(=O)c4cn(-c5cccnc5)cc(-c5ccc(F)cc5)c4=O)cc3F)c2nc1OC` [Compound 125, N-[4-[(6,7-Dimethoxy-1,5-naphthyridin-4-yl)oxy]-3-fluorophenyl]-5-(4-fluorophenyl)-4-oxo-1-pyridin-3-ylpyridine-3-carboxamide], the IC50 in assay [1] and in assay [2] was more than 300 nM each time.

`COc1cc2nccc(Oc3ccc(NC(=O)c4cn(OC)cc(-c5ccc(F)cc5)c4=O)cc3F)c2nc1OC` [Compound 126, N-[4-[(6,7-Dimethoxy-1,5-naphthyridin-4-yl)oxy]-3-fluorophenyl]-5-(4-fluorophenyl)-1-methoxy-4-oxopyridine-3-carboxamide]: the IC50 in assay [1] and in assay [2] was less than 100 nM throughout.

`COc1cc2nccc(Oc3ccc(NC(=O)c4cn(OC)cc(-c5ccc(F)cc5)c4=O)cc3)c2nc1OC` [Compound 127, N-[4-[(6,7-Dimethoxy-1,5-naphthyridin-4-yl)oxy]phenyl]-5-(4-fluorophenyl)-1-methoxy-4-oxopyridine-3-carboxamide]: the IC50 in assay [1] and in assay [2] was less than 100 nM each time.

On to `COc1cnc2c(Oc3ccc(NC(=O)c4cn(OC)cc(-c5ccc(F)cc5)c4=O)cc3F)ccnc2c1` [Compound 128, N-[3-Fluoro-4-[(7-methoxy-1,5-naphthyridin-4-yl)oxy]phenyl]-5-(4-fluorophenyl)-1-methoxy-4-oxopyridine-3-carboxamide], for which the IC50 in assay [1] is 100 to 300 nM; in assay [2], less than 100 nM.

Take `COc1nc2c(Oc3ccc(NC(=O)c4cncc(-c5ccc(F)cc5)c4O)cc3F)ccnc2cc1Br` [Compound 129, N-[4-[(7-Bromo-6-methoxy-1,5-naphthyridin-4-yl)oxy]-3-fluorophenyl]-5-(4-fluorophenyl)-4-hydroxypyridine-3-carboxamide]: the IC50 in assay [1] and in assay [2] was less than 100 nM each time.

For `COc1nc2c(Oc3ccc(NC(=O)c4cnc(C)c(-c5ccc(F)cc5)c4O)cc3F)ccnc2cc1Br` [Compound 130, N-[4-[(7-Bromo-6-methoxy-1,5-naphthyridin-4-yl)oxy]-3-fluorophenyl]-5-(4-fluorophenyl)-4-hydroxy-6-methylpyridine-3-carboxamide], the IC50 in assay [1] and in assay [2] was less than 100 nM in each case.

`COc1nc2c(Oc3ccc(NC(=O)c4cn(C(C)C)cc(-c5ccc(F)cc5)c4=O)cc3F)ccnc2cc1Br` [Compound 131, N-[4-[(7-Bromo-6-methoxy-1,5-naphthyridin-4-yl)oxy]-3-fluorophenyl]-5-(4-fluorophenyl)-4-oxo-1-propan-2-ylpyridine-3-carboxamide]: the IC50 in assay [1] and in assay [2] was more than 300 nM in each case.

Regarding `COc1nc2c(Oc3ccc(NC(=O)c4cn(C(C)C)c(C)c(-c5ccc(F)cc5)c4=O)cc3F)ccnc2cc1Br` [Compound 132, N-[4-[(7-Bromo-6-methoxy-1,5-naphthyridin-4-yl)oxy]-3-fluorophenyl]-5-(4-fluorophenyl)-6-methyl-4-oxo-1-propan-2-ylpyridine-3-carboxamide], the IC50 in assay [1] and in assay [2] was 100 to 300 nM in each case.

Regarding `COC(=O)c1cnc2c(Oc3ccc(NC(=O)c4cnc(C)c(-c5ccc(F)cc5)c4O)cc3F)ccnc2c1` [Compound 138, Methyl 8-[2-fluoro-4-[[5-(4-fluorophenyl)-4-hydroxy-6-methylpyridine-3-carbonyl]amino]phenoxy]-1,5-naphthyridine-3-carboxylate], the IC50 was more than 300 nM in assay [1] and 100 to 300 nM in assay [2].

`COc1cc2nccc(Oc3ccc(NC(=O)c4cn(C(C)(C)C)c(C)c(-c5ccc(F)cc5)c4=O)cc3F)c2nc1OC` [Compound 139, 1-tert-Butyl-N-[4-[(6,7-dimethoxy-1,5-naphthyridin-4-yl)oxy]-3-fluorophenyl]-5-(4-fluorophenyl)-6-methyl-4-oxopyridine-3-carboxamide]: the IC50 in assay [1] and in assay [2] was more than 300 nM throughout.

For the molecule `COc1cc2nccc(Oc3ccc(NC(=O)c4cn(-c5cnn(C)c5)c(C)c(-c5ccc(F)cc5)c4=O)cc3F)c2nc1OC` [Compound 140, N-[4-[(6,7-Dimethoxy-1,5-naphthyridin-4-yl)oxy]-3-fluorophenyl]-5-(4-fluorophenyl)-6-methyl-1-(1-methylpyrazol-4-yl)-4-oxopyridine-3-carboxamide], the IC50 in assay [1] and in assay [2] was more than 300 nM each time.

Take `COc1cc2nccc(Oc3ccc(NC(=O)c4cnc(C)c(-c5ccc(F)cc5)c4O)cc3F)c2nc1Br` [Compound 142, N-[4-[(6-Bromo-7-methoxy-1,5-naphthyridin-4-yl)oxy]-3-fluorophenyl]-5-(4-fluorophenyl)-4-hydroxy-6-methylpyridine-3-carboxamide]: the IC50 in assay [1] and in assay [2] was less than 100 nM throughout.
